Test results: US20250281424A1 (New York Blood Center, Inc, priority 2020, published 2025)

Molecular target: T1, human PF4 (Homo sapiens, UniProt P02776)
T1 construct: PF4 is a 70 amino acid, lysine-rich 7.8 kDa platelet-specific protein; made in house; host or cells: Escherichia coli BL21DE3 pLysS (pT7-7) and/or Drosophila S2 cells
T1 sequence (P02776 32-101): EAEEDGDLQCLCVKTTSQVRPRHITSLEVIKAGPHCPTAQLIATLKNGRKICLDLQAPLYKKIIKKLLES
Test: Inhibition of PF4 tetramer formation (BS3 cross-linking, SDS-PAGE)
Assay type: biochemical
Settings: for inhibition at 5 µM: 5 μM inhibitor; for inhibition at 5 µM / inhibition at 10 µM / inhibition at 1 µM / inhibition at 3 µM: read-out: % inhibition of PF4 tetramer formation at single concentration of inhibitor; for inhibition at 10 µM: 10 μM inhibitor (column A); for IC50: read-out: IC50 of PF4 tetramer formation inhibition; for inhibition at 1 µM: 1 μM inhibitor; for inhibition at 3 µM: 3 μM inhibitor (column A)
Procedure, shortened: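 Recombinant human wild-type PF4 (E. coli-expressed, heparin-purified), 10 μg/ml in PBS, incubated with compound 15 min at 37° C or 60 min at room temperature, then cross-linked with 0.2 mM BS3 for 30 min at room temperature. Reducing 12% SDS-PAGE; bands quantified as % tetramer, trimer, dimer, monomer versus compound-free control.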

inhibition at 5 µM [%]	inhibition at 10 µM [%]	IC50 [µM]	inhibition at 1 µM [%]	inhibition at 3 µM [%]	Structure (SMILES)
75	86	18	–	–	CO[C@@H](C(=O)C1C(=O)c2ccc(S(=O)(=O)c3ccc4c(c3)C(=O)C(C(=O)[C@H](OC)c3ccccc3)C4=O)cc2C1=O)c1ccccc1 (stereo partly drawn) [Example 136, 2-[(2R)-2-methoxy-2-phenylacetyl]-5-({2-[(2R)-2-methoxy-2-phenylacetyl]-1,3-dioxo-2,3-dihydro-1H-inden-5-yl}sulfonyl)-2,3-dihydro-1H-indene-1,3-dione]
–	–	–	27	40	CCNC(=O)C1C(=O)c2ccc(Oc3ccc4c(c3)C(=O)C(C(=O)NCC)C4=O)cc2C1=O (centres unmarked) [Example 334, N-ethyl-5-{[2-(ethylcarbamoyl)-1,3-dioxo-2,3-dihydro-1H-inden-5-yl]oxy}-1,3-dioxo-2,3-dihydro-1H-indene-2-carboxamide]
75	88	5.1	–	–	O=C1c2ccc(S(=O)(=O)c3ccc4c(c3)C(=O)C(C(=O)C3CCN(C(=O)OCc5ccccc5)C3)C4=O)cc2C(=O)C1C(=O)C1CCN(C(=O)OCc2ccccc2)C1 (centres unmarked) [Example 160, benzyl 3-{5-[(2-{1-[(benzyloxy)carbonyl]pyrrolidine-3-carbonyl}-1,3-dioxo-2,3-dihydro-1H-inden-5-yl)sulfonyl]-1,3-dioxo-2,3-dihydro-1H-indene-2-carbonyl}pyrrolidine-1-carboxylate]
87	89	4.8	–	–	COC(=O)N1CCC[C@H]1C(=O)C1C(=O)c2ccc(-c3ccc4c(c3)C(=O)C(C(=O)[C@@H]3CCCN3C(=O)OC)C4=O)cc2C1=O (stereo partly drawn) [Example 213, methyl (2S)-2-{2′-[(2S)-1-(methoxycarbonyl)pyrrolidine-2-carbonyl]-1,1′,3,3′-tetraoxo-1H,1′H,2H,2′H,3H,3′H-[5,5′-biindene]-2-carbonyl}pyrrolidine-1-carboxylate]
–	–	–	18	39	O=C1c2ccc(S(=O)(=O)c3ccc4c(c3)C(=O)C(C(=O)[C@H]3CCCN3)C4=O)cc2C(=O)C1C(=O)[C@@H]1CCNC1 (stereo partly drawn) [Example 350, 5-({1,3-dioxo-2-[(3R)-pyrrolidine-3-carbonyl]-2,3-dihydro-1H-inden-5-yl}sulfonyl)-2-[(2R)-pyrrolidine-2-carbonyl]-2,3-dihydro-1H-indene-1,3-dione]
–	–	–	18	55	Cc1ccccc1C(=O)CCC(=O)C1C(=O)c2ccc(Oc3ccc4c(c3)C(=O)C(C(=O)CCC(=O)c3ccccc3C)C4=O)cc2C1=O (centres unmarked) [Example 259, 2-[4-(2-methylphenyl)-4-oxobutanoyl]-5-({2-[4-(2-methylphenyl)-4-oxobutanoyl]-1,3-dioxo-2,3-dihydro-1H-inden-5-yl}oxy)-2,3-dihydro-1H-indene-1,3-dione]
–	–	–	15	47	O=C(O)CNC(=O)C1C(=O)c2ccc(Oc3ccc4c(c3)C(=O)C(C(=O)NCC(=O)O)C4=O)cc2C1=O (centres unmarked) [Example 307, 2-{[5-({2-[(carboxymethyl)carbamoyl]-1,3-dioxo-2,3-dihydro-1H-inden-5-yl}oxy)-1,3-dioxo-2,3-dihydro-1H-inden-2-yl]formamido}acetic acid]
70	75	–	–	–	O=C(NCc1ccccc1)C1C(=O)c2ccc(S(=O)(=O)c3ccc4c(c3)C(=O)C(C(=O)NCc3ccccc3)C4=O)cc2C1=O (centres unmarked) [Example 93, N-benzyl-5-{[2-(benzylcarbamoyl)-1,3-dioxo-2,3-dihydro-1H-inden-5-yl]sulfonyl}-1,3-dioxo-2,3-dihydro-1H-indene-2-carboxamide]
70	86	3	–	–	O=C(Cn1cnnn1)C1C(=O)c2ccc(S(=O)(=O)c3ccc4c(c3)C(=O)C(C(=O)Cn3cnnn3)C4=O)cc2C1=O (centres unmarked) [Example 169, 5-({1,3-dioxo-2-[2-(1H-1,2,3,4-tetrazol-1-yl)acetyl]-2,3-dihydro-1H-inden-5-yl}sulfonyl)-2-[2-(1H-1,2,3,4-tetrazol-1-yl)acetyl]-2,3-dihydro-1H-indene-1,3-dione]
68	89	4.3	–	–	O=C(c1ccc2c(c1)C(=O)C(C(=O)Cn1cnnn1)C2=O)c1ccc2c(c1)C(=O)C(C(=O)Cn1cnnn1)C2=O (centres unmarked) [Example 168, 5-{1,3-dioxo-2-[2-(1H-1,2,3,4-tetrazol-1-yl)acetyl]-2,3-dihydro-1H-indene-5-carbonyl}-2-[2-(1H-1,2,3,4-tetrazol-1-yl)acetyl]-2,3-dihydro-1H-indene-1,3-dione]
–	–	–	12	21	CC(C)[C@@H](N)C(=O)C1C(=O)c2ccc(Oc3ccc4c(c3)C(=O)C(C(=O)[C@H](N)C(C)C)C4=O)cc2C1=O (stereo partly drawn) [Example 351, 2-[(2R)-2-amino-3-methylbutanoyl]-5-({2-[(2R)-2-amino-3-methylbutanoyl]-1,3-dioxo-2,3-dihydro-1H-inden-5-yl}oxy)-2,3-dihydro-1H-indene-1,3-dione]

The remaining lines, values behind:

Structure (SMILES)	inhibition at 5 µM [%]	inhibition at 10 µM [%]	IC50 [µM]	inhibition at 1 µM [%]	inhibition at 3 µM [%]
CC(C)(C)OC(=O)N1CCC[C@H]1C(=O)C1C(=O)c2ccc(Oc3ccc4c(c3)C(=O)C(C(=O)[C@@H]3CCCN3C(=O)OC(C)(C)C)C4=O)cc2C1=O (stereo partly drawn) [Example 193, tert-butyl (2S)-2-[5-({2-[(2S)-1-[(tert-butoxy)carbonyl]pyrrolidine-2-carbonyl]-1,3-dioxo-2,3-dihydro-1H-inden-5-yl}oxy)-1,3-dioxo-2,3-dihydro-1H-indene-2-carbonyl]pyrrolidine-1-carboxylate]	37	40	–	–	–
C=CCNC(=O)C1C(=O)c2ccc(C(=O)c3ccc4c(c3)C(=O)C(C(=O)NCC=C)C4=O)cc2C1=O (centres unmarked) [Example 65, 5,5′-carbonylbis(n-allyl-1,3-dioxo-2,3-dihydro-1h-indene-2-carboxamide)]	50	71	–	–	–
CC(C(=O)C1C(=O)c2ccc(C(=O)c3ccc4c(c3)C(=O)C(C(=O)C(C)c3ccc(F)cc3)C4=O)cc2C1=O)c1ccc(F)cc1 (centres unmarked) [Example 242, 2-[2-(4-fluorophenyl)propanoyl]-5-{2-[2-(4-fluorophenyl)propanoyl]-1,3-dioxo-2,3-dihydro-1H-indene-5-carbonyl}-2,3-dihydro-1H-indene-1,3-dione]	–	–	–	13	31
CC(C)(C)OC(=O)N1CCCC[C@H]1C(=O)C1C(=O)c2ccc(-c3ccc4c(c3)C(=O)C(C(=O)[C@@H]3CCCCN3C(=O)OC(C)(C)C)C4=O)cc2C1=O (stereo partly drawn) [Example 212, tert-butyl (2S)-2-{2′-[(2S)-1-[(tert-butoxy)carbonyl]piperidine-2-carbonyl]-1,1′,3,3′-tetraoxo-1H,1′H,2H,2′H,3H,3′H-[5,5′-biindene]-2-carbonyl}piperidine-1-carboxylate]	91	88	5.5	–	–
CCOC(=O)CNC(=O)C1C(=O)c2ccc(C(=O)c3ccc4c(c3)C(=O)C(C(=O)NCC(=O)OCC)C4=O)cc2C1=O (centres unmarked) [Example 30, 5,5′-5,5′-carbonylbis([(1,3-dioxo-indane-2-carbonyl)-amino]-acetic acid ethyl ester)]	12	58	–	–	–
O=C(NCCc1cccc(Cl)c1)C1C(=O)c2ccc(S(=O)(=O)c3ccc4c(c3)C(=O)C(C(=O)NCCc3cccc(Cl)c3)C4=O)cc2C1=O (centres unmarked) [Example 84, N-[2-(3-chlorophenyl)ethyl]-5-[(2-{[2-(3-chlorophenyl)ethyl]carbamoyl}-1,3-dioxo-2,3-dihydro-1H-inden-5-yl)sulfonyl]-1,3-dioxo-2,3-dihydro-1H-indene-2-carboxamide]	–	–	3	–	–
CC(C)CCCC(=O)C1C(=O)c2ccc(S(=O)(=O)c3ccc4c(c3)C(=O)C(C(=O)CCCC(C)C)C4=O)cc2C1=O (centres unmarked) [Example 171, 2-(5-methylhexanoyl)-5-{[2-(5-methylhexanoyl)-1,3-dioxo-2,3-dihydro-1H-inden-5-yl]sulfonyl}-2,3-dihydro-1H-indene-1,3-dione]	62	75	–	–	–
O=C(c1ccc2c(c1)C(=O)C(C(=O)COc1ccccc1)C2=O)c1ccc2c(c1)C(=O)C(C(=O)COc1ccccc1)C2=O (centres unmarked) [Example 143, 5,5-[1,3-dioxo-2-(2-phenoxyacetyl)-2,3-dihydro-1H-indene-5-carbonyl]-2-(2-phenoxyacetyl)-2,3-dihydro-1H-indene-1,3-dione]	–	–	7	–	–
COC1CCC(C(=O)C2C(=O)c3ccc(S(=O)(=O)c4ccc5c(c4)C(=O)C(C(=O)C4CCC(OC)CC4)C5=O)cc3C2=O)CC1 (centres unmarked) [Example 151, 2-(4-methoxycyclohexanecarbonyl)-5-{[2-(4-methoxycyclohexanecarbonyl)-1,3-dioxo-2,3-dihydro-1H-inden-5-yl]sulfonyl}-2,3-dihydro-1H-indene-1,3-dione]	89	100	~6	–	–
COCCOCCNC(=O)C1C(=O)c2ccc(C(=O)c3ccc4c(c3)C(=O)C(C(=O)NCCOCCOC)C4=O)cc2C1=O (centres unmarked) [Example 66, 5,5′-carbonylbis(n-(2-(2-methoxyethoxy)ethyl)-1,3-dioxo-2,3-dihydro-1h-indene-2-carboxamide)]	48	86	–	–	–
